Laboratory results taken from ChEMBL document CHEMBL5257026, “Progress and prospects on DENV protease inhibitors” (Eur J Med Chem, 2016).
Starred links: 1 amine or outer side, 2 acyl side, 3 side chain; linkers in the order of their positions; H or OH if unused. Non-standard residues stand in square brackets, D forms with d. Residues, ends and D or L forms follow the SMILES beside them. *: point of attachment. Arg(ψCOCO) = N=C(N)NCCC[C@H](N[*:1])C(=O)C(=O)[*:2]; Nle = CCCC[C@H](N)C(=O)O; PhAc = O=C(Cc1ccccc1)*; Bz = O=C(c1ccccc1)*

What was measured:
[1] = Inhibition of DENV2 NS2B-G4-S-G4-NS3 protease using Bz-nKRR-AMC as substrate preincubated for 30 mins followed by substrate addition by fluorescence microplate reader assay; parameters: species or system dengue virus type 2
[2] = Inhibition of DENV2 recombinant NS2B-NS3 protease expressed in Escherichia coli JM109 using acetyl-TTSTRR-para-nitroaniline as substrate preincubated for 10 mins followed by substrate addition measured after 120 mins by spectrophotometric analysis; parameters: species or system dengue virus type 2
[3] = Inhibition of DENV1 N-terminally hexa-His tagged NS2B (48 to 95 residues) -NS3 (1 to 184 residues) protease expressed in Escherichia coli XL1 Blue using QXL570-Phe-Ala-Ser-Gly-Lys-Arg-Ser-Gln-Ile-Gly-Leu-Lys(5-TAMRA)-NH2 as substrate and measured for 15 mins by FRET assay; parameters: species or system dengue virus type 1
[4] = Inhibition of DENV2 N-terminally hexa-His tagged NS2B (48 to 95 residues) -NS3 (1 to 184 residues) protease expressed in Escherichia coli XL1 Blue using QXL570-Phe-Ala-Ser-Gly-Lys-Arg-Ser-Gln-Ile-Gly-Leu-Lys(5-TAMRA)-NH2 as substrate and measured for 15 mins by FRET assay; parameters: species or system dengue virus type 2
[5] = Inhibition of DENV3 N-terminally hexa-His tagged NS2B (48 to 95 residues) -NS3 (1 to 184 residues) protease expressed in Escherichia coli XL1 Blue using QXL570-Phe-Ala-Ser-Gly-Lys-Arg-Ser-Gln-Ile-Gly-Leu-Lys(5-TAMRA)-NH2 as substrate and measured for 15 mins by FRET assay; parameters: species or system dengue virus type 3
[6] = Inhibition of DENV4 N-terminally hexa-His tagged NS2B (48 to 95 residues) -NS3 (1 to 184 residues) protease expressed in Escherichia coli XL1 Blue using QXL570-Phe-Ala-Ser-Gly-Lys-Arg-Ser-Gln-Ile-Gly-Leu-Lys(5-TAMRA)-NH2 as substrate and measured for 15 mins by FRET assay; parameters: species or system dengue virus type 4
[7] = Inhibition of DENV2 hydrophilic domain of NS2B (48 aminoacids)-NS3 (185 aminoacids) protease using Bz-Nle-Lys-Arg-Arg-AMC as substrate preincubated for 15 mins followed by substrate addition by spectrofluorometeric assay; parameters: species or system dengue virus type 2
[8] = Inhibition of DENV2 recombinant CF40gly(T)R fused NS2B-NS3 protease expressed in Escherichia coli XL1-Blue MRF using Boc-Gly-Arg-Arg-MCA as substrate incubated for 30 mins by fluorescence spectrophotometeric assay; parameters: species or system dengue virus type 2
[9] = Inhibition of DENV2 NS2B-NS3 protease expressed in Escherichia coli BL21 (DE3) using Bz-Nle-Lys-Arg-Arg-AMC as substrate preincubated for 30 mins followed by substrate addition by fluorescence plate reader analysis; parameters: species or system dengue virus type 2
[10] = Inhibition of DENV2 recombinant NS2B-NS3 protease expressed in Escherichia coli C41 using GRR-AMC as substrate incubated for 15 mins by Lineweaver-Burk plot analysis; parameters: species or system dengue virus type 2
[11] = Inhibition of DENV2 recombinant CF40-glycine fused NS2B-NS3 protease expressed in Escherichia coli SG13009 using Ac-TTSTRR-pNA as substrate preincubated for 50 mins followed by substrate addition by spectrophotometric assay; parameters: species or system dengue virus type 2
[12] = Inhibition of DENV2 recombinant NS2B-(G4-S-G4)-NS3 protease using Bz-nKRR-AMC as substrate preincubated for 30 mins followed by substrate addition measured after 30 mins by fluorescence spectrophotometric analysis; parameters: species or system dengue virus type 2

Structure (SMILES): N#Cc1ccc(OC(=O)c2ccc(NC(=N)N)cc2)cc1
- IC50 [1]: 37.9 µM

Structure (SMILES): CCN1/C(=C/C=C/c2oc3ccc4ccccc4c3[n+]2CC)Oc2ccc3ccccc3c21
- IC50 [2]: 27 µM

Structure (SMILES): N=C(N)Nc1ccc(OC(=O)c2ccc(NC(=N)N)cc2)cc1
- IC50 [1]: 7.7 µM

Structure (SMILES): Cc1cc(NC(=O)O[C@@H]2C[C@H](Oc3ccc(NC(=N)N)cc3N=C(N)N)[C@@H](N=C(N)N)C[C@H]2N=C(N)N)ccc1F
- IC50 [3]: 2.6 µM
- IC50 [4]: 7 µM
- IC50 [5]: 8.2 µM
- IC50 [6]: 21 µM

Structure (SMILES): N=C(N)Nc1ccc(NC(=O)O[C@H]2C[C@@H](OC(=O)Nc3ccc(NC(=N)N)cc3)[C@H](NC(=N)N)C[C@@H]2NC(=N)N)cc1
- IC50 [3]: 10.3 µM
- IC50 [4]: 17 µM
- IC50 [5]: 18.4 µM
- IC50 [6]: 69 µM

Structure (SMILES): O=C(Nc1nc2cc(O)c(O)cc2s1)c1ccccc1Sc1ccc(C(F)(F)F)cc1
- IC50 [2]: 3.6 µM

Structure (SMILES): O=C(Nc1cccs1)c1ccccc1Sc1ccc([N+](=O)[O-])cc1
- IC50 [2]: 98 µM

Structure (SMILES): N=C(N)Nc1ccc(O[C@H]2C[C@@H](Oc3ccc(NC(=N)N)cc3)[C@H](NC(=N)N)C[C@@H]2NC(=N)N)cc1
- IC50 [3]: 5 µM
- IC50 [4]: 10.9 µM
- IC50 [5]: 9 µM
- IC50 [6]: 20 µM

Structure (SMILES): N=C(N)Nc1ccccc1O[C@H]1C[C@@H](Oc2ccccc2NC(=N)N)[C@H](NC(=N)N)C[C@@H]1NC(=N)N
- IC50 [3]: 8.8 µM
- IC50 [4]: 32 µM
- IC50 [5]: 17 µM
- IC50 [6]: 55 µM

Structure (SMILES): N=C(N)Nc1ccc(N[C@H]2C[C@@H](NC(=N)N)[C@H](Oc3ccc(NC(=N)N)cc3)C[C@@H]2Oc2ccc(NC(=N)N)cc2)cc1
- IC50 [3]: 5.3 µM
- IC50 [4]: 10 µM
- IC50 [5]: 4 µM
- IC50 [6]: 12.4 µM

Structure (SMILES): O=C(Nc1nc2ccc([N+](=O)[O-])cc2s1)c1ccccc1Sc1ccc(C(F)(F)F)cc1
- IC50 [2]: 22 µM

Structure (SMILES): O=C(Nc1nc2ccc([N+](=O)[O-])cc2s1)c1ccccc1Sc1ccc([N+](=O)[O-])cc1
- IC50 [2]: 34 µM

Structure (SMILES): Oc1c(C(Cc2nccs2)c2ccccc2OCc2ccccc2)ccc2ccccc12 (configuration not stated)
- IC50 [7]: 2.34 µM

Structure (SMILES): Oc1c(C(Cc2nccs2)c2cccc(OCc3ccccc3)c2)ccc2ccccc12 (configuration not stated)
- IC50 [7]: 2.93 µM

Structure (SMILES): c1ccc([C@H]2Oc3ccccc3[C@@H]3Oc4ccccc4C[C@H]23)cc1
- Ki [8]: 510 µM

Structure (SMILES): Oc1c(C(Cc2nc3ccccc3s2)c2ccccc2OCc2ccccc2)ccc2ccccc12 (configuration not stated)
- IC50 [7]: 3.67 µM

Structure (SMILES): N=C(N)Nc1ccc(O[C@H]2C[C@@H](O)[C@H](NC(=N)N)C[C@@H]2NC(=N)N)c(NC(=N)N)c1
- IC50 [3]: 9.7 µM
- IC50 [4]: 15 µM
- IC50 [5]: 20 µM
- IC50 [6]: 57 µM

Structure (SMILES): N=C(N)Nc1ccc(O[C@H]2C[C@H](F)[C@H](NC(=N)N)C[C@@H]2NC(=N)N)c(NC(=N)N)c1
- IC50 [3]: 8.8 µM
- IC50 [4]: 20.5 µM
- IC50 [5]: 17.2 µM
- IC50 [6]: 53 µM

Structure (SMILES): c1ccc2[nH]c(-c3ccc(Nc4nnc(Nc5ccc(-c6nc7ccccc7[nH]6)cc5)c5ccccc45)cc3)nc2c1
- IC50 [9]: 1.1 µM

Structure (SMILES): N=C(N)Nc1cc(NC(=N)N)c2ccccc2c1O[C@H]1C[C@@H](O)[C@H](NC(=N)N)C[C@@H]1NC(=N)N
- IC50 [3]: 7.9 µM
- IC50 [4]: 6 µM
- IC50 [5]: 8.6 µM
- IC50 [6]: 34 µM

Structure (SMILES): CCCCCCCCCC[N+](CC)(CC)CCOc1ccc2c(c1)C(=O)c1cc(OCC[N+](CC)(CC)CCCCCCCCCC)ccc1-2
- IC50 [2]: 15.4 µM

Structure (SMILES): O=C1C[C@@H](c2ccc3c(c2)OCCO3)Oc2ccccc21
- Ki [8]: 186 µM

Structure (SMILES): O=c1cc(-c2ccccc2)oc2ccc(-c3nnn[nH]3)cc12
- Ki [8]: 69 µM

Structure (SMILES): Oc1c(C(Cc2nc3ccccc3s2)c2cccc(OCc3ccccc3)c2)ccc2ccccc12 (configuration not stated)
- IC50 [7]: 0.91 µM

Structure (SMILES): Cc1cc(C)c2c(c1)O[C@@H](c1ccc(N(C)C)cc1)CC2=O
- Ki [8]: 121 µM

Structure (SMILES): Cc1[nH]c2ccccc2c1C(=O)NCc1ccc(CN2CCCC2)cc1
- IC50 [1]: 300 µM

Structure (SMILES): CC1CNC(c2ccc(Nc3nnc(Nc4ccc(C5=NC(C)CN5)cc4)c4ccccc34)cc2)=N1 (configuration not stated)
- IC50 [9]: 8.9 µM

Structure (SMILES): CCN1/C(=C/C=C/c2oc3ccc(-c4ccccc4)cc3[n+]2CC)Oc2ccc(-c3ccccc3)cc21
- IC50 [2]: 20.5 µM

Structure (SMILES): CC(=O)N[C@@H](CCC(=O)O)C(=O)N[C@H](C(=O)N[C@@H](CCCCN)C(=O)N[C@@H](CCCCN)C(=O)N[C@@H](CCC(N)=O)C(=O)N[C@@H](CCCNC(=N)N)C(N)=O)C(C)C (Ac-EVKKQR-NH2)
- Ki [10]: 66.7 µM

Structure (SMILES): CC(=O)N[C@@H](Cc1ccccc1)C(=O)N[C@@H](C)C(=O)N[C@@H](C)C(=O)NCC(=O)N[C@@H](CCCNC(=N)N)C(=O)N[C@@H](CCCCN)C(N)=O (Ac-FAAGRK-NH2)
- Ki [10]: 25.9 µM

Structure (SMILES): CC(=O)N[C@@H](Cc1ccccc1)C(=O)N[C@@H](C)C(=O)N[C@@H](C)C(=O)NCC(=O)N[C@@H](CCCNC(=N)N)C(=O)N[C@H](C=O)CCCNC(=N)N (Ac-FAAGRR-aldehyde)
- Ki [11]: 16 µM

Structure (SMILES): CC(=O)N[C@@H](Cc1ccccc1)C(=O)N[C@@H](C)C(=O)N[C@@H](C)C(=O)NCC(=O)N[C@@H](CCCNC(=N)N)C(=O)N[C@@H](CCCNC(=N)N)C(=O)C(=O)N[C@@H](CO)C(=O)N[C@@H](CC(C)C)C(N)=O (Ac-FAAGR[Arg(ψCOCO)]SL-NH2)
- Ki [11]: 47 µM

Structure (SMILES): CC(=O)NCC(=O)N[C@@H](CCCCN)C(=O)N[C@@H](CCCNC(=N)N)C(N)=O (Ac-Gly-Lys-Arg-NH2)
- Ki [10]: 152 µM

Structure (SMILES): CC(=O)N[C@@H](CCCCN)C(=O)N[C@@H](CCCNC(=N)N)C(N)=O (Ac-Lys-Arg-NH2)
- Ki [10]: 122 µM

Structure (SMILES): CC(=O)N[C@@H](CCCCN)C(=O)N[C@@H](CCCCN)C(=O)N[C@@H](CCCNC(=N)N)C(N)=O (Ac-Lys-Lys-Arg-NH2)
- Ki [10]: 22.3 µM

Structure (SMILES): CC(=O)N[C@@H](CCCNC(=N)N)C(=O)N[C@H](C(=O)N[C@@H](CO)C(=O)N[C@@H](CCCCN)C(=O)N[C@@H](CCCCN)C(=O)N[C@@H](CCCNC(=N)N)C(N)=O)[C@@H](C)O (Ac-RTSKKR-NH2)
- Ki [10]: 12.1 µM

Structure (SMILES): CC(=O)N[C@@H](CO)C(=O)N[C@@H](CCCCN)C(=O)N[C@@H](CCCCN)C(=O)N[C@@H](CCCNC(=N)N)C(N)=O (Ac-SKKR-NH2)
- Ki [10]: 188 µM

Structure (SMILES): CC(=O)N[C@H](C(=O)N[C@H](C(=O)N[C@@H](CO)C(=O)N[C@H](C(=O)N[C@@H](CCCNC(=N)N)C(=O)N[C@@H](CCCNC(=N)N)C(N)=O)[C@@H](C)O)[C@@H](C)O)[C@@H](C)O (Ac-TTSTRR-NH2)
- Ki [10]: 46 µM

Structure (SMILES): CC(=O)N[C@H](C(=O)N[C@H](C(=O)N[C@@H](CO)C(=O)N[C@H](C(=O)N[C@@H](CCCNC(=N)N)C(=O)N[C@@H](CCCNC(=N)N)C(=O)C(=O)NCC(=O)N[C@H](C(=O)NCC(=O)N[C@@H](CC(N)=O)C(N)=O)[C@@H](C)O)[C@@H](C)O)[C@@H](C)O)[C@@H](C)O (Ac-TTSTR[Arg(ψCOCO)]GTGN-NH2)
- Ki [11]: 368 µM

Structure (SMILES): CC(=O)N[C@H](C(=O)N[C@H](C(=O)N[C@@H](CO)C(=O)N[C@H](C(=O)N[C@@H](CCCNC(=N)N)C(=O)N[C@@H](CCCNC(=N)N)C(=O)C(=O)N[C@@H](CO)C(=O)N[C@@H](CC(C)C)C(N)=O)[C@@H](C)O)[C@@H](C)O)[C@@H](C)O (Ac-TTSTR[Arg(ψCOCO)]SL-NH2)
- Ki [11]: 220 µM

Structure (SMILES): CCCC[C@H](NC(=O)c1ccccc1)C(=O)N[C@@H](CCCCN)C(=O)N[C@@H](CCCNC(=N)N)C(=O)N[C@H](C=O)CCCNC(=N)N (Bz-[Nle]KRR-aldehyde)
- IC50 [12]: 9.5 µM

Structure (SMILES): N=C(N)NCCC[C@@H](C=O)NC(=O)[C@H](CCCNC(=N)N)NC(=O)[C@H](CCCCN)NC(=O)Cc1ccccc1 (PhAc-Lys-Arg-Arg-aldehyde)
- IC50 [12]: 6.7 µM

Structure (SMILES): N=C(N)NCCC[C@@H](C=O)NC(=O)[C@H](CCCCN)NC(=O)[C@H](CCCCN)NC(=O)Cc1ccccc1 (PhAc-Lys-Lys-Arg-aldehyde)
- IC50 [12]: 167 µM
